Data on 28 compounds can be found in US20250381110A1, “SKIN CARE COMPOSITION AND METHOD OF USING THE SAME” (THE PROCTER & GAMBLE COMPANY, priority 2024, published 2025).

Each structure is given as a SMILES string. Where a name gives a salt, the structure may show the parent alone. Where a SMILES comes first, the peptide text is derived from it. Bridges are numbered along the chain shown (N, C = ends). [ ]: non-standard residue; d: D form. The star is where a group is joined. Ileψ(thiazoline)Cys = CC[C@H](C)[C@H](N)C1=N[C@H](C(=O)*)CS1; dOrn = NCCC[C@@H](N)C(=O)O

For the test, the system named is p62-dependent mitophagy. In words: Luciferase-p62 assay (Fluc-p62 clearance) in mouse embryonic fibroblasts. Format: cell-based. Particulars: for Mean Luminescence: Luciferase-p62 assay, mouse embryonic fibroblasts (MEFs), compounds at 10 μM; for % Activity over baseline: percentage of Luciferase-p62 clearance relative to baseline (mean luminescence in the absence of doxycycline induction); for % Activity over baseline / % Activity relative to Rapamycin: MEFs, 10 μM; for % Activity relative to Rapamycin: percentage of activity relative to rapamycin tested in the same experiment at the same concentration. The procedure:
To identify p62-dependent materials which increase mitophagy, a Luciferase-p62 Assay was established. This method provides an approach to measure the ability of a material to modulate p62-dependent mitophagy by using an inducible firefly luciferase-p62 (Fluc-p62) reporter cell system. In this assay, p62 levels are driven by doxycycline treatment. After levels increased, expression of Fluc-p62 is turned off by removal of doxycycline, materials are then added and assessed for how they affect clearance of Fluc-p62 protein, which is proportionate to cellular mitophagy rates (Kelly et al.). The negative control is doxycycline induced Luc-p62 in the absence of compound or bioactive material treatment and in the presence of vehicle (DMSO).
Test materials including bioactive materials were screened in mouse embryonic fibroblasts (MEFs, Harada et al.) expressing the TET-inducible p62-fluc construct as previously described (Brown et al.). […] Gibson assembly was used to insert firefly luciferase (Fluc) and p62 into the pCW57.1 backbone. Fluc, p62, and pCW57.1 were polymerase chain reaction (PCR) amplified using pfu polymerase (Life technologies) and Gibson assembly primers with 20 base pair (bp) overhangs. PCR products were separated by agarose gel electrophoreses, and fragments excised and purified before use in DNA assembly reaction with NEBuilder HiFi DNA Assembly kit (New England Biolabs). After the assembly, the reaction mix was transformed into NEB3040 Stable Competent Escherichia coli (New England Biolabs). After 24 hours growth at 31 degrees Celsius the plasmid was extracted using QIAprep Spin Miniprep kit (Qiagen). The plasmid was sequenced to confirm correct insertion of Fluc-p62. To generate MEFs stably expressing doxycycline inducible Fluc-p62, HEK293FT cells were transfected with Fluc-p62-pCW57.1 and the ViraPower Packaging Mix (Invitrogen) to produce lentivirus. MEFs were transduced with the obtained lentiviral stock following followed by selection with 1 microgram per milliliter puromycin.Fluc-p62expressing MEFs were maintained in DMEM supplemented with 10 percent fetal bovine serum (FBS), 100 units per milliliter penicillin/streptomycin, and 2 millimolar L-glutamine in a humidified atmosphere containing 5 percent carbon dioxide at 37 degrees Celsius. Cells were plated into white 96 well plates (2,000 cells per well with 100 microliters media) and allowed to settle for 24 hours. […] Subsequently, cells were treated with test materials for 48 hours in normal growth medium and analysed using ONE-Glo™+Tox Luciferase Reporter and Cell Viability Assay (Promega) by following the manufacturer's protocol.
Test compositions and control compositions were prepared as described above in the Luciferase-p62 assay (Method 3) and tested accordingly. The compounds used in this example, as examples of bioactive materials, were from the APExBIO DiscoveryProbe™ Natural Product Library Plus (Houston, TX) and evaluated at equivalent concentrations (10 μM).
Data are additionally calculated as percentage of activity relative to rapamycin, a benchmark control compound tested in the same experiment.

For `CC1(C)CC[C@]2(C(=O)O[C@@H]3O[C@H](CO[C@@H]4O[C@H](CO)[C@@H](O)[C@H](O)[C@H]4O)[C@@H](O)[C@H](O)[C@H]3O)CC[C@]3(C)C(=CC[C@@H]4[C@@]5(C)CC[C@H](O[C@@H]6OC[C@H](O)[C@H](O)[C@H]6O)[C@@](C)(CO)[C@@H]5CC[C@]43C)[C@@H]2C1` [Asperosaponin VI], the “Mean Luminescence” value is listed as 955.83, the “% Activity over baseline” value is given as 40.93% and the “% Activity relative to Rapamycin” value amounted to 73.74%.
The like results for `CC[C@H](C)[C@H](N)C1=N[C@H](C(=O)N[C@@H](CC(C)C)C(=O)N[C@H](CCC(=O)O)C(=O)N[C@H](C(=O)N[C@H]2CCCCNC(=O)[C@H](CC(N)=O)NC(=O)[C@@H](CC(=O)O)NC(=O)[C@H](Cc3cnc[nH]3)NC(=O)[C@@H](Cc3ccccc3)NC(=O)[C@H]([C@@H](C)CC)NC(=O)[C@@H](CCCN)NC2=O)[C@@H](C)CC)CS1` [Bacitracin] ({Ileψ(thiazoline)Cys}-L[dE]IK[dOrn]I[dF]H[dD]N; lactam 4-C) were, in that order, 860.05, 46.85% and 84.41%.
As for `COc1nc2ccc(Br)cc2cc1[C@@H](c1ccccc1)[C@@](O)(CCN(C)C)c1cccc2ccccc12` [Bedaquiline], the “Mean Luminescence” value was 802.99.
Take `CC1(C)S[C@@H]2[C@H](NC(=O)Cc3ccccc3)C(=O)N2[C@H]1C(=O)O` [Benzylpenicillin potassium]: the “Mean Luminescence” value came out at 937.79, the “% Activity over baseline” value turned out to be 42.04% and the “% Activity relative to Rapamycin” value was found to be 75.75%.
The like results for `COc1ccc2cc3[n+](cc2c1O)CCc1cc2c(cc1-3)OCO2` [Berberrubine] were, in that order, 766.18, 52.65% and 94.86%.
The matching figures for `N[C@@H]1CCCCN(c2c(F)cc3c(=O)c(C(=O)O)cn(C4CC4)c3c2Cl)C1` [Besifloxacin HCl]: 777.82, 51.93% and 93.56%.
Regarding `O=C(O)CCNC(=O)c1ccccc1` [Betamipron], the “Mean Luminescence” value is 923.38.
Regarding `O=C(/C=C/c1ccc(O)cc1)CC(=O)/C=C/c1ccc(O)cc1` [Bisdemethoxycurcumin], the “Mean Luminescence” value is on record as 355.33, the “% Activity over baseline” value is on record as 78.04% and the “% Activity relative to Rapamycin” value is given as 140.61%.
With `C[C@H]1CCC/C=C/[C@@H]2C[C@H](O)C[C@H]2[C@H](O)/C=C/C(=O)O1` [Brefeldin A], the “Mean Luminescence” value was 356.17, the “% Activity over baseline” value is given as 77.99% and the “% Activity relative to Rapamycin” value is 140.52%.
Regarding `CC(C)C[C@H]1C(=O)N2CCC[C@H]2[C@]2(O)O[C@](NC(=O)[C@@H]3C=C4c5cccc6[nH]c(Br)c(c56)C[C@H]4N(C)C3)(C(C)C)C(=O)N12` [Bromocriptine mesylate], the “Mean Luminescence” value is on record as 685.00, the “% Activity over baseline” value turned out to be 57.67% and the “% Activity relative to Rapamycin” value is given as 103.90%.
The like results for `CN(Cc1ccc(C(C)(C)C)cc1)Cc1cccc2ccccc12` [Butenafine HCl] were, in that order, 582.45, 64.00% and 115.32%.
The like results for `CO[C@H]1C(=O)[C@]2(C)[C@@H](OC)C[C@H]3OC[C@@]3(OC(C)=O)[C@H]2[C@H](OC(=O)c2ccccc2)[C@]2(O)C[C@H](OC(=O)[C@H](O)[C@@H](NC(=O)OC(C)(C)C)c3ccccc3)C(C)=C1C2(C)C` [Cabazitaxel] were, in that order, 929.36, 42.56% and 76.69%.
The like results for `CC(C)(CO)C(O)C(=O)NCCC(=O)[O-].CC(C)(CO)C(O)C(=O)NCCC(=O)[O-].[Ca+2]` [Calcium D-Panthotenate] were, in that order, 981.67, 39.33% and 70.87%.
For the compound `CCCCCOC(=O)Nc1nc(=O)n([C@@H]2O[C@H](C)[C@@H](O)[C@H]2O)cc1F` [Capecitabine], the “Mean Luminescence” value is given as 918.89, the “% Activity over baseline” value stood at 43.21% and the “% Activity relative to Rapamycin” value worked out at 77.86%.
For `COc1cc(CNC(=O)CCCC/C=C/C(C)C)ccc1O` [Capsaicin], the “Mean Luminescence” value amounted to 832.02, the “% Activity over baseline” value came out at 48.58% and the “% Activity relative to Rapamycin” value is reported as 87.53%.
The like results for `CC1(C)[C@@H](OC(=O)CCC(=O)O)CC[C@]2(C)[C@H]3C(=O)C=C4[C@@H]5C[C@@](C)(C(=O)O)CC[C@]5(C)CC[C@@]4(C)[C@]3(C)CC[C@@H]12` [Carbenoxolone disodium] were, in that order, 856.44, 47.07% and 84.81%.
As for `CC(C)c1cc2c(c(O)c1O)[C@@]1(C(=O)O)CCCC(C)(C)[C@@H]1CC2` [Carnosic acid], the “Mean Luminescence” value was 661.96, the “% Activity over baseline” value came to 59.09% and the “% Activity relative to Rapamycin” value is listed as 106.47%.
For the compound `Cc1ccc(C(C)C)cc1O` [Carvacrol], the “Mean Luminescence” value is 937.62, the “% Activity over baseline” value was determined as 42.05% and the “% Activity relative to Rapamycin” value amounted to 75.77%.
`C[C@@H]1CC[C@H]2C(C)(C)[C@H]3C[C@@]12CC[C@@]3(C)O` [Cedrol]: the “Mean Luminescence” value is 850.22, the “% Activity over baseline” value was found to be 47.46% and the “% Activity relative to Rapamycin” value came out at 85.50%.
The matching figures for `CO/N=C(\C(=O)N[C@@H]1C(=O)N2C(C(=O)O)=C(Cn3ccc(=N)n3CCO)CS[C@H]12)c1csc(N)n1.O=S(=O)(O)O` [Cefoselis Sulfate]: 937.12, 42.09% and 75.83%.
The like results for `CN(C)CCn1nnnc1SCC1=C(C(=O)O)N2C(=O)[C@@H](NC(=O)Cc3csc(N)n3)[C@H]2SC1` [Cefotiam hydrochloride] were, in that order, 993.62, 38.59% and 69.54%.
The matching figures for `CO/N=C(\C(=O)N[C@@H]1C(=O)N2C(C(=O)O)=C(CSC(=O)c3ccco3)CS[C@H]12)c1csc(N)n1` [Ceftiofur HCl]: 781.02, 51.73% and 93.21%.
For the compound `CO/N=C(\C(=O)N[C@@H]1C(=O)N2C(C(=O)OC(C)OC(C)=O)=C(COC(N)=O)CS[C@H]12)c1ccco1` (some centres unmarked) [Cefuroxime axetil], the “Mean Luminescence” value is 958.52, the “% Activity over baseline” value is 40.76% and the “% Activity relative to Rapamycin” value is 73.44%.
The matching figures for `CC(=O)OCC1=C(C(=O)O)N2C(=O)[C@@H](NC(=O)Cc3cccs3)[C@H]2SC1` [Cephalothin]: 727.65, 55.03% and 99.15%.
The like results for `C[C@H](CCC(=O)O)[C@H]1CC[C@H]2[C@@H]3[C@H](O)C[C@@H]4C[C@H](O)CC[C@]4(C)[C@H]3CC[C@]12C` [Chenodeoxycholic Acid] were, in that order, 999.71, 38.22% and 68.86%.
The matching figures for `Oc1c(Cl)cc(Cl)c2cccnc12` [Chloroxine]: 272.45, 83.16% and 149.84%.
Consider `CC[C@H]1OC(=O)[C@H](C)[C@@H](O[C@H]2C[C@@](C)(OC)[C@@H](O)[C@H](C)O2)[C@H](C)[C@@H](O[C@@H]2O[C@H](C)C[C@H](N(C)C)[C@H]2O)[C@](C)(OC)C[C@@H](C)C(=O)[C@H](C)[C@@H](O)[C@]1(C)O` [Clarithromycin], for which the “Mean Luminescence” value is given as 941.49, the “% Activity over baseline” value amounted to 41.82% and the “% Activity relative to Rapamycin” value came to 75.34%.
Consider `CC(C)(C)NCC(O)c1cc(Cl)c(N)c(Cl)c1` (centres unmarked) [Clenbuterol (hydrochloride)], for which the “Mean Luminescence” value was found to be 994.53, the “% Activity over baseline” value was 38.54% and the “% Activity relative to Rapamycin” value was found to be 69.44%.
